Experimental findings from ChEMBL document CHEMBL4052746, “Flavonoid glycosides from Barringtonia acutangula” (Bioorg Med Chem Lett, 2017) are described below.

Series [1] relates to RAW264.7. The series is described as follows: Cytotoxicity against mouse RAW264.7 cells assessed as reduction in cell viability by MTT assay. It counts as cell-based. In general terms: Tetrazolium assays rely on reduction of a dye to a coloured formazan, in cell work by metabolically active cells.
The subject of series [2] is RAW264.7. As to the kind of experiment: Antiinflammatory activity in mouse RAW264.7 cells assessed as inhibition of LPS-induced NO production pretreated for 30 mins followed by LPS stimulation for 24 hrs by Griess assay. It counts as functional, cell-based. (In general: Nitrite, measured by Griess reagent, commonly stands in for NO production.)

Broadly, the IC50 is the point on the concentration scale where inhibition reaches its midpoint.

Each structure is given as a SMILES string.

Turning to `O=C(OC[C@H]1O[C@@H](Oc2c(-c3ccc(O)c(O)c3)oc3cc(O)cc(O)c3c2=O)[C@H](O)[C@@H](O)[C@H]1O)c1ccc(O)cc1`, the Activity result in the series on RAW264.7 [1] is recorded as “Non-Toxic”. Moreover, the half-inhibitory concentration (IC50) with RAW264.7 [2] was found to be 20 µM.
